The subject of one test is HeLa. Nature of the test: Cytotoxicity against human HeLa cells after 48 hrs by MTT assay. In kind it is functional, cell-based. On the technique in general: Formazan colour is commonly taken as a measure of viable cells.
A further test deals with MCF7. Nature of the test: Cytotoxicity against human MCF7 cells after 48 hrs by MTT assay. In kind it is functional, cell-based. The settings on record: MCF7, 48 h.
A further test relates to MDA-MB-231. The test is described as follows: Cytotoxicity against human MDA-MB-231 cells after 48 hrs by MTT assay. In kind it is functional, cell-based. To be noted: MDA-MB-231, 48 h.
In the next test the test system is PC-3. The test is described as follows: Cytotoxicity against human PC3 cells after 48 hrs by MTT assay. The settings on record: PC-3, 48 h. The class given is functional, cell-based.
The target in test [1] is T1, Peroxisome proliferator-activated receptor gamma (Homo sapiens) (UniProt P37231).
T1 sequence (whole entry): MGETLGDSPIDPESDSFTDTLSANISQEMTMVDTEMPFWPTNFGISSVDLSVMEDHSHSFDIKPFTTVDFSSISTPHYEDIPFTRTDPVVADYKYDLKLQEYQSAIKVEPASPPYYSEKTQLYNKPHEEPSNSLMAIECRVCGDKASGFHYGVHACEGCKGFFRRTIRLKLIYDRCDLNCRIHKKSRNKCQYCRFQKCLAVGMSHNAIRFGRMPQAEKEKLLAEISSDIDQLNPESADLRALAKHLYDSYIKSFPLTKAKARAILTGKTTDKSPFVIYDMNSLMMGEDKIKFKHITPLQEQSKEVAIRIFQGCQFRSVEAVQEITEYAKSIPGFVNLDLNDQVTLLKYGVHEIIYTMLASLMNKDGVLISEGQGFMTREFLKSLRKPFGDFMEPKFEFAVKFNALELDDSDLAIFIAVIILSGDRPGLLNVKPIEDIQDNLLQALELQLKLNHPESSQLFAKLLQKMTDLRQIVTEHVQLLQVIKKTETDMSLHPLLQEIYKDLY
Nature of the test: Agonist activity at human PPARgamma expressed in Escherichia coli BL21 assessed as stimulation of binding between receptor and steroid receptor coactivator-1 at 320 uM by ELISA relative to untreated control.

In test [2] the target is T1, Peroxisome proliferator-activated receptor gamma (Homo sapiens). Nature of the test: Agonist activity at human PPARgamma expressed in Escherichia coli BL21 assessed as stimulation of binding between receptor and steroid receptor coactivator-1 by ELISA.
Test [3] shares this target. The test is described as follows: Binding affinity to human PPARgamma expressed in Escherichia coli BL21 assessed as binding constant by fluorescence quenching assay.
The subject of a further test is A549. The test is described as follows: Cytotoxicity against human A549 cells after 48 hrs by MTT assay. The class given is functional, cell-based. The settings on record: A549, 48 h.

The term IC50 denotes the concentration that inhibits the measured activity by half. The low end stands for higher potency, the high end for lower potency.

Where only a bound is given, the exact number is not on record here.

As for `O=c1c(O)c(-c2ccccc2)oc2ccc(O)cc12`, the IC50 in the test with HeLa is 12.5 µM; in the test with MCF7, more than 100 µM; with MDA-MB-231, more than 100 µM; with PC-3, 50 µM; with A549 it was 100 µM. The fold change (FC) in test [1] was 7. Also, in test [2], the Activity entry was “Dose-dependent effect”. Moreover, in test [3], the K came out at 2.36 ×10⁵ /M.

On to `COc1ccc2c(c1)c(CC(=O)O)c(C)n2C(=O)c1ccc(Cl)cc1` [INDOMETHACIN], for which the IC50 is 50 µM with HeLa; more than 100 µM in the test with MCF7; more than 100 µM with MDA-MB-231; more than 100 µM in the test on PC-3; more than 100 µM with A549. Also, the fold change (FC) in test [1] turned out to be 2. Besides, the K in test [3] worked out at 3.39 ×10⁵ /M.

These data come from ChEMBL document CHEMBL1177747, “Cytotoxic flavonoids as agonists of peroxisome proliferator-activated receptor gamma on human cervical and prostate cancer cells” (J Nat Prod, 2010).
